This is an account of results in patent publication US11766440B1, “Methods for the prevention and treatment of hearing loss” (Ting Therapeutics LLC, priority 2020, dated 2023).

The test system of data set [1] is zebrafish lateral line neuromast hair cells. Kind of data set: Zebrafish lateral line neuromast hair cell counts after aminoglycoside. The data set is classed as in vivo, Danio rerio. The settings on record: 5dpf larvae, 1 hour pre-incubation 0.002-13.3 μM. As to the method:
. Each treatment was pretreated with MMB at the prescribed doses prior to co-treatment with the aminoglycoside. Control animal were treated with DMSO (−) or KM or GM alone (+) Animals were then fixed and immunostained for GFP and otoferlin. Quantification was done by assessing three neuromasts in the same anatomic location of each animal (n=5). The data is plotted as mean+SD. Statistical testing was done with One-way ANOVA and Dunnett post-hoc test (*P<0.05, **P<0.01,***P<0.001).
FIG. 4A-B show Fedratinib (FED) protected zebrafish mechanosensory hair cells against kanamycin (KM) in vivo. 5dpf Tg(Brn3c:mGFP) larvae were used for the experiments. Each treatment was pretreated FED at the prescribed doses prior to co-treatment with the aminoglycoside. […] Control animal were treated with DMSO (−) or KM alone (+) Animals were then fixed and immunostained for GFP and otoferlin. Quantification was done by assessing three neuromasts in the same anatomic location of each animal (n=5). […]
These two markers were used to detect and count neuromast HCs to reduce the chances of missing some of the HCs after the treatment since we previously noticed that incubation with the compounds can affect GFP expression more difficult to detect under a fluorescence microscope (26). […] Compounds were then evaluated on efficiency and potency, with the top-rated compounds showing high protection at lower concentrations. […]

Data set [2] concerns outer hair cells of cochlear explants of P3 FVB mice. In words: Outer hair cell survival in whole-mount cochlear explants treated with aminoglycosides. The data set is classed as cell-based, mouse. On the procedure: A) Representative confocal images of the middle turn of whole-mount cochlear explants from P3 FVB mice treated with medium alone, […] gentamicin, 0.2 μM Momelotinib and […] gentamicin for 24 h. […] HCs are labeled with phalloidin. […] (Mann-Whitney U Test, *P<0.05, **P<0.01) shown in a micromolar concentration.
Now referring to FIG. 2A-B, Momelotinib protects from aminoglycoside toxicity in cochlear explants of P3 FVB mice. FVB mice were bred in the Creighton University animal facility. Procedures were approved by the IACUC committee of the Creighton University. 2A) Inner ears were collected from the post-natal day 3 (P3) FVB mice and transferred onto a filter (Millicell, PICM03050; Millipore) soaked in culturing medium. The filter was placed in 6-well culture plates with 1.2 mL medium outside the filter. The culturing medium is DMEM (10565-018; gibco) with 1% FBS (16000-044; gibco), 500 μL ampicillin (A5354; Sigma), 100 μL N-2 supplement (17502-048, gibco) and 100 μL B-27 supplement (17504-044, gibco). After culturing for 24 h at 37° C. in 5% CO2, 1 mL culturing medium with MMB at 0.2 μM, […] MMB alone or without MMB and added both inside and outside the filter to preincubate for another 1 h before adding gentamicin solution. A 50 μg/mL gentamicin (G1397, Sigma) was chosen to induce around 35% hair cell death after incubation for 24 h at 37° C. For compound CYT-387 or MMB (A10263, AdooQ). The procedures were performed under sterile condition in the culture hood. Cochleae were then fixed with 4% PFA for 30 min and stained with Alexa Fluor 555 phalloidin in to determine the survival rate of the hair cells. All the cochleae images were taken with Zeiss 700 confocal microscopy. […] The survival OHCs were then normalized to 100 μm length to further compare between different experimental conditions. 2B) OHC survival (OHC number per 100 μm length of cochlear middle turn) after treatment with Momelotinib at 0.0016, 0.008, 0.04, 0.2, 1.0, 5.0, 10.0 and 20.0 μM for 1 hour and co-incubated with 100 μM GM for 1 hour, or co-incubated with 600 μM kanamycin (K0254, Sigma) for 1 hour. […]

Data set [3] is described as follows: 14-day oral toxicity and auditory brainstem response (ABR) thresholds in mice. The data set is classed as in vivo, C57BL/6 mice. On the procedure:
Auditory brainstem response (ABR) thresholds were recorded for 3 frequencies (8 kHz, 16 kHz, and 32 kHz) before and after a 14-day MMB treatment protocol. […] Statistical analysis was done with repeated measures ANOVA between groups.
4-week-old C57BL/6 mice obtained from The Jackson Laboratory were used, with a mix of males and females across experiments. Mice were administered a 14-day Momelotinib treatment protocol. Auditory Brainstem Response thresholds were recorded at 8 kHz, 16 kHz, and 32 kHz for a baseline sample of mice and the mice administered Momelotinib.

A further data set deals with EGFR kinase (Homo sapiens, UniProt P00533). The conditions noted are these: measured value; read-out: IC50 in EGFR kinase inhibition assays; cited from earlier work.
Sequence of EGFR kinase (P00533 25-1210): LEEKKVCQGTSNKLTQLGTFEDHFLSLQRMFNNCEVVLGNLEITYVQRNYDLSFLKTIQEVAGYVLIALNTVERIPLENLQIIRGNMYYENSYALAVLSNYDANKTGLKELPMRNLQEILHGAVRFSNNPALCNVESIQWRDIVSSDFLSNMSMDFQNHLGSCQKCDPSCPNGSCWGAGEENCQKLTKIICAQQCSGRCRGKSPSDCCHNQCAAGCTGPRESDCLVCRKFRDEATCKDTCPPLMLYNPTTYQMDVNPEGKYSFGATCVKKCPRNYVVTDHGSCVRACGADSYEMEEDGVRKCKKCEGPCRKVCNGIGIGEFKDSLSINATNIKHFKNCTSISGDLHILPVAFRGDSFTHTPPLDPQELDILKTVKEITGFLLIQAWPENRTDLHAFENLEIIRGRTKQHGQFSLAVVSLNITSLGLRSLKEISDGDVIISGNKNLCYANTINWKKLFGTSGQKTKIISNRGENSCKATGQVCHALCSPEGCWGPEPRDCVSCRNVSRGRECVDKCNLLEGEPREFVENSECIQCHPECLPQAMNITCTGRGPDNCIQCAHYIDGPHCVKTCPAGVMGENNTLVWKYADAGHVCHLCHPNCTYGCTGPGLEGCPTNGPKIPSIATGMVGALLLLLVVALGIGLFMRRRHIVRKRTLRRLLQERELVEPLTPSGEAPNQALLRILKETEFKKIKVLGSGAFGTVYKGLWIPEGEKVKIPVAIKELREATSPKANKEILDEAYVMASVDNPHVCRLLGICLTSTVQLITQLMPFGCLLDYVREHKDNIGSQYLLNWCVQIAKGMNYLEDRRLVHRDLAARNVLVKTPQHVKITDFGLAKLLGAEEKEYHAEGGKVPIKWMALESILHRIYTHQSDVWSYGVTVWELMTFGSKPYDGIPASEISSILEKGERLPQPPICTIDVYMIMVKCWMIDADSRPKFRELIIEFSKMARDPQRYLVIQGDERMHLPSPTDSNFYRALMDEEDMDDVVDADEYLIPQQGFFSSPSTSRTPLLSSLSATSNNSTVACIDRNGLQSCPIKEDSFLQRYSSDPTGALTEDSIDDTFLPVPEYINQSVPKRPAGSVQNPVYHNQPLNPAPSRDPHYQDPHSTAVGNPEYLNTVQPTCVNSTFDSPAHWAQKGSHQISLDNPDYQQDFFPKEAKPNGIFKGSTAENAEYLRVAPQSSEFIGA
In a further data set the target is TYK2 (Homo sapiens, UniProt P29597). The settings on record: cited from earlier work.
Sequence of TYK2 (P29597 whole entry): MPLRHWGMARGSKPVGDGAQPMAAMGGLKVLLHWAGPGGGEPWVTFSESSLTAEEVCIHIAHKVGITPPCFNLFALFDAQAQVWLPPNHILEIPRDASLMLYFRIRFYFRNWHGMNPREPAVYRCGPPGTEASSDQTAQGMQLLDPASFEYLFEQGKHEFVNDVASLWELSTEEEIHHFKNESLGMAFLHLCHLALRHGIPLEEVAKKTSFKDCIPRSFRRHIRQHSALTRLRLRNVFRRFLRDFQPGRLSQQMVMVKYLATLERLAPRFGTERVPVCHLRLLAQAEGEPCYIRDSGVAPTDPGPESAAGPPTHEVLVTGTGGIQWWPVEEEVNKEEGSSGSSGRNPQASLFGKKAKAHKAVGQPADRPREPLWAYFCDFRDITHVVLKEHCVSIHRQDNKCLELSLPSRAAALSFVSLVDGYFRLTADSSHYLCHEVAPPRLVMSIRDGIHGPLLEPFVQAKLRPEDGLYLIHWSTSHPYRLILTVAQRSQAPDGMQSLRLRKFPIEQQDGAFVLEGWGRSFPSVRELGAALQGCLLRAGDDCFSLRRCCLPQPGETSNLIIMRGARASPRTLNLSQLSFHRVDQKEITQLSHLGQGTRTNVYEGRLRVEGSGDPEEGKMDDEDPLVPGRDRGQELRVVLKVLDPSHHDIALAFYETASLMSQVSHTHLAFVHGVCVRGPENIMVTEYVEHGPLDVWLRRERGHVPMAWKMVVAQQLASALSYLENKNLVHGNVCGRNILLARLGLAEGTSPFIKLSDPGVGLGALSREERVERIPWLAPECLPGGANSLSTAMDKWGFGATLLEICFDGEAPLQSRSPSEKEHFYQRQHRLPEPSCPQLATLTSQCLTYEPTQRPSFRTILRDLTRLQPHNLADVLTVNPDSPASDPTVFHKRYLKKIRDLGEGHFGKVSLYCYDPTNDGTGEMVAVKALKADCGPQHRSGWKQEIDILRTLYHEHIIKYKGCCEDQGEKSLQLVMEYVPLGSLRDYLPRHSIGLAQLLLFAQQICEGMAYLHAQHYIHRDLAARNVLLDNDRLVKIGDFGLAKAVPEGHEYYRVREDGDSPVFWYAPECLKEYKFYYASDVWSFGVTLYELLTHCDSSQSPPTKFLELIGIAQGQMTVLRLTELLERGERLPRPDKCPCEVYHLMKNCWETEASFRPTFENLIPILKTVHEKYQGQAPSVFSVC
Another data set has as its target T1, JAK3 (Homo sapiens, UniProt P52333).
T1 sequence (P52333 1-1124): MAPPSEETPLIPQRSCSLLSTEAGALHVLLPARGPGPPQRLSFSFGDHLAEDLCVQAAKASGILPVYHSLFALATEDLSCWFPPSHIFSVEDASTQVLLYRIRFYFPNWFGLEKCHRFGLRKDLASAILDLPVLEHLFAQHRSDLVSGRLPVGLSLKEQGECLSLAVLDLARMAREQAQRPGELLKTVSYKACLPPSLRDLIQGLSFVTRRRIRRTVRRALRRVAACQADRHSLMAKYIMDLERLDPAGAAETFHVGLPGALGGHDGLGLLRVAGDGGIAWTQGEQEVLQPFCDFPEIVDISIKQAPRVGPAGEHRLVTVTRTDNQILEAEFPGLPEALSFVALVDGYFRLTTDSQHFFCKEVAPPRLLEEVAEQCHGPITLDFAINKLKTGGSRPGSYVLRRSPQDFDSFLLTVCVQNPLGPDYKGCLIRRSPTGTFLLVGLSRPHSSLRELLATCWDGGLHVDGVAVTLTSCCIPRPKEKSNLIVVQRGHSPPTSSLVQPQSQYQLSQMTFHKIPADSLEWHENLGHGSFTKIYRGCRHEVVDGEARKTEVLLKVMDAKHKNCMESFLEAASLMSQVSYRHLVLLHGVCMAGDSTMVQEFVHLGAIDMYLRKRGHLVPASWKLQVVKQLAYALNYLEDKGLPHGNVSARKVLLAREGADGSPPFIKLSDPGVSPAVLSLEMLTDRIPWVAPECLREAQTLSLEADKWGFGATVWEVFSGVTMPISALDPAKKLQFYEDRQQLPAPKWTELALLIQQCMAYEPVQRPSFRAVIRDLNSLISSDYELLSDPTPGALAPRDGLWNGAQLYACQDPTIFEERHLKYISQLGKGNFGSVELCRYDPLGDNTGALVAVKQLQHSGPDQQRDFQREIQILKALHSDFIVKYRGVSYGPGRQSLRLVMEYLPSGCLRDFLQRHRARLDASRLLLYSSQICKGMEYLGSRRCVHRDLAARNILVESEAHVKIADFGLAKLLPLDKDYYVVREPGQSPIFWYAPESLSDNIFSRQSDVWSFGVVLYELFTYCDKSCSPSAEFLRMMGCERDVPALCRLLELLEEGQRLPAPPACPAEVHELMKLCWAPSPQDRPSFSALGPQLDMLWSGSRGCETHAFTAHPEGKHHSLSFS
The settings on record: cited from earlier work.

For the next data set, the target named is JAK1 (Homo sapiens, UniProt P23458). The settings on record: cited from earlier work.
Sequence of JAK1 (P23458 whole entry, species assumed): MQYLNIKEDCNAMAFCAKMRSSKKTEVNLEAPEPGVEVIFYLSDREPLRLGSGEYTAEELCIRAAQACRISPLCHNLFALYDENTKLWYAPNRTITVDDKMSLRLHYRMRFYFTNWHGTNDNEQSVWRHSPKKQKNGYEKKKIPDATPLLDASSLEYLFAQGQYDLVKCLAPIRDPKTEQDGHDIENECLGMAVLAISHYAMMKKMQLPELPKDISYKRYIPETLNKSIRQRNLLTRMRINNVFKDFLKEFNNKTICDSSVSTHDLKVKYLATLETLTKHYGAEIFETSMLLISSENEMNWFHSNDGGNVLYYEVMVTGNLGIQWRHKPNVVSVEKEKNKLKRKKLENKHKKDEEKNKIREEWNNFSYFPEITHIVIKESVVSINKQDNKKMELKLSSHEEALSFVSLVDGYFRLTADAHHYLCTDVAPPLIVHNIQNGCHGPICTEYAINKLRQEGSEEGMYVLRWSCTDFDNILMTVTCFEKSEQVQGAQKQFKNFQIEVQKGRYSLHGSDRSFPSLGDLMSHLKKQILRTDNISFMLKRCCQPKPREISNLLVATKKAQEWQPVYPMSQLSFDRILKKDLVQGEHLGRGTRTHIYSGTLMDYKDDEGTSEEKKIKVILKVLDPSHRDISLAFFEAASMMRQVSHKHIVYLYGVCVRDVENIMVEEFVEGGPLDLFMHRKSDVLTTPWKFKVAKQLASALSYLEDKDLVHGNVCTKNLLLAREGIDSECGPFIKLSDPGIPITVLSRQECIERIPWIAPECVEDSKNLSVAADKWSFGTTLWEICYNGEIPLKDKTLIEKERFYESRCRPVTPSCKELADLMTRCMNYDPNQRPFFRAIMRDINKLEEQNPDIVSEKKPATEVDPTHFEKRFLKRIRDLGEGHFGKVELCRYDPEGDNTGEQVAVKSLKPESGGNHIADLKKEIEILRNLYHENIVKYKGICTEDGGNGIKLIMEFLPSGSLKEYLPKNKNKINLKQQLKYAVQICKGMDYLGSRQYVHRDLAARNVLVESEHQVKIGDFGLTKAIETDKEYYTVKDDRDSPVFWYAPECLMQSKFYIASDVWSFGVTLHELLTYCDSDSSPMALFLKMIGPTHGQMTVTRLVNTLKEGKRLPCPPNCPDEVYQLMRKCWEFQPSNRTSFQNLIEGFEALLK
The next data set deals with JAK2 (Homo sapiens, UniProt O60674). The settings on record: cited from earlier work.
Sequence of JAK2 (O60674 whole entry, species assumed): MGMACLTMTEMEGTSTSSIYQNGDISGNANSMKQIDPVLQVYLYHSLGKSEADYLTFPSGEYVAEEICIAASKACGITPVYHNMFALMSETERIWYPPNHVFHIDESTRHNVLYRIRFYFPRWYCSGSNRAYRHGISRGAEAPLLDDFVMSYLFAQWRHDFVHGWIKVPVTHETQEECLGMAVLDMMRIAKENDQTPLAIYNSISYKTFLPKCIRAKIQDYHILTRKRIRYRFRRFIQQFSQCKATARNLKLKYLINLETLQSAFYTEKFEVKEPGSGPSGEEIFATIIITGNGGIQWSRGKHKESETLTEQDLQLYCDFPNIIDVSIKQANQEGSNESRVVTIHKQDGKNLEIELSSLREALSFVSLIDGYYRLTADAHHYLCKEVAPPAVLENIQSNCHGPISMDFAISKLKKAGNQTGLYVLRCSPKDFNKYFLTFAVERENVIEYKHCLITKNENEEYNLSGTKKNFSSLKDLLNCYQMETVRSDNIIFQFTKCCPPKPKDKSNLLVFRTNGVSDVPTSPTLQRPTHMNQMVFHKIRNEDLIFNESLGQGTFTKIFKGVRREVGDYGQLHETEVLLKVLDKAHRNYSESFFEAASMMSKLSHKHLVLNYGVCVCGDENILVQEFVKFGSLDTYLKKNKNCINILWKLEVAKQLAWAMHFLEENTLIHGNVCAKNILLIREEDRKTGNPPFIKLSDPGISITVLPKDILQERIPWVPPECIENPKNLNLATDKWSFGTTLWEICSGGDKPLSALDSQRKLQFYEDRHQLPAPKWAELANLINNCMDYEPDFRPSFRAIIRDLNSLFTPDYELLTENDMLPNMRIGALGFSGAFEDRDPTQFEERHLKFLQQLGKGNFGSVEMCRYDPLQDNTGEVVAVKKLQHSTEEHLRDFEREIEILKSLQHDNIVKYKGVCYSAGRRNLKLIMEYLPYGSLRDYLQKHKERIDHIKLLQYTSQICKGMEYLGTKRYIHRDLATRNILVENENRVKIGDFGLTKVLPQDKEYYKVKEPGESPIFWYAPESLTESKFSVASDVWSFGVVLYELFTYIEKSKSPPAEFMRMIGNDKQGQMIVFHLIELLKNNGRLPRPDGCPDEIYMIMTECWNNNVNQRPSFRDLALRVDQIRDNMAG
In data set [4] the test system is panel of 38 non-JAK kinases. The conditions noted are these: cited from earlier work.

Where a name gives a salt, the structure may show the parent alone. Read-outs that look alike come from different tables or passages of the source.

In the case of `N#CCNC(=O)c1ccc(-c2ccnc(Nc3ccc(N4CCOCC4)cc3)n2)cc1` [Momelotinib], the “protection of mechanosensory hair cells against gentamicin (GM)” value in data set [1] (then GM 100 uM for 1 hour) was “protected”. For the same molecule, in data set [1] (then KM 200 or 300 uM for 1 hour or 150 uM for 6 hours), the “protection of mechanosensory hair cells against kanamycin (KM)” value is recorded as “protected”. Also, the “toxicity to HCs of compound alone” value in data set [2] (0.2 μM Momelotinib alone, cochlear explants) was “did not show toxicity”. In addition, in data set [2] (cotreated with MMB 0.2 μM and gentamicin (GM), 24 h, P3 FVB cochlear explants), the “hair cell loss at the middle turn region (phalloidin images)” value is on record as “minimal levels of hair cell loss”. Further, the “protection against aminoglycoside-induced hair cell loss (OHC number per 100 μm length of cochlear middle turn)” value in data set [2] (cotreatment with Momelotinib and gentamicin or kanamycin, n=5 per group) is listed as “full protection”. For the same molecule, the “inner ear toxicity: ABR thresholds before and after treatment” value in [3] (8 kHz, 16 kHz and 32 kHz, 14-day Momelotinib protocol) was “No differences”. Moreover, the “general toxicity in vivo” value in data set [3] (oral, up to 100 mg/kg/day over a 14-day regimen, 4-week-old C57BL/6 mice) is on record as “not toxic”.
Take `COc1cc2ncnc(Nc3cc(Br)c(O)c(Br)c3)c2cc1OC` [WHI-P97]: the IC50 at EGFR kinase is 2500 nM.
As for `N#Cc1ccc(COc2ccc(-c3cccc4nc(NC(=O)C5CC5)nn34)cc2)cn1` [GLPG0634 analogue], the IC50 at TYK2 is 116 nM; on JAK3, 810 nM; on JAK1, 10 nM; at JAK2 (cell-free assay for AZD1480 and AT9283), 28 nM.
Take `COc1cc2ncnc(Nc3ccc(O)c(Br)c3)c2cc1OC` [WHI-P154]: the “activity against JAK1” value on JAK1 was “no activity”. Besides, the “activity against JAK2” value at JAK2 was “no activity”.
For `NC(=O)c1nc(-c2c(F)cccc2Cl)oc1Nc1ccc(C(=O)N2CCOCC2)cc1` [SAR-20347], the IC50 was 0.6 nM on TYK2, 41 nM on JAK3 (cell-free assay for AT9283) and 23 nM at JAK1.
As for Oclacitinib maleate, the “inhibition of a panel of 38 non-JAK kinases” value in [4] is listed as “does not inhibit”.
With `CC(C)N(CCC(=O)c1ccc2ccccc2c1)Cc1ccccc1` [ZM 39923 HCl], the “activity against JAK2” value at JAK2 is “almost no activity”.
For the molecule `CC1(C)CN(C(=O)c2ccc(-c3cccc4nc(NC(=O)C5CC5)nn34)cc2)C1` [Solcitinib], the “selectivity for JAK1 over TYK2” value on TYK2 is recorded as 23 fold. In addition, the “selectivity for JAK1 over JAK3” value on JAK3 is 55 fold. Moreover, the IC50 on JAK1 is 8 to 9 nM. In addition, the “selectivity for JAK1 over JAK2” value at JAK2 was 11 fold.
On to `COc1cc2ncnc(Nc3ccc(O)cc3)c2cc1OC` [JANEX-1], for which the IC50 at JAK3 was 78000 nM. On JAK1, the “activity against JAK1” value was “without altering the activity”. Also, the “activity against JAK2” value on JAK2 is reported as “without altering the activity”.

A word on the IC50: it is the concentration that gives 50% inhibition.
